According to US9056835B2, “LPA2 receptor-specific benzoic acid derivatives” (University of Tennessee Research Foundation, priority 2012, dated 2015):

What was measured:
Format in all cases: cell-based
GPR87 = GPR87 (Homo sapiens, UniProt Q9BY21); experiment: LPA receptor-mediated Ca2+ mobilization assay, GPR87; conditions: for inhibition of GPR87 Ca2+ response: 10 μM, ~EC75 LPA 18:1; for GPR87 Imax (%): inhibition by 10 μM compound of ~EC75 LPA 18:1 Ca2+ response; for EC50: agonist, Ca2+ mobilization
Chain of GPR87 (Q9BY21 whole entry): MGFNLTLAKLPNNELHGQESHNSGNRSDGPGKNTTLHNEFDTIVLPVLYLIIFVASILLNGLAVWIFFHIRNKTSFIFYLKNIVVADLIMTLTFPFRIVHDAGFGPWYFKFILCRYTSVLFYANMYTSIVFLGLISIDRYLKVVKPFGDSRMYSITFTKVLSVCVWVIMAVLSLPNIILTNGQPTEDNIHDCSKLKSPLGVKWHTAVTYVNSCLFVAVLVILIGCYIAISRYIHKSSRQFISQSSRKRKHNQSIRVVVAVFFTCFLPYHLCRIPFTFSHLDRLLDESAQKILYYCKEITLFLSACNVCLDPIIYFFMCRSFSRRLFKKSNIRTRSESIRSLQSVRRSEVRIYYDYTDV
Description: (§1) Similarity searches were performed separately using each fingerprint to quantitate similarity. Hits meeting the 80% similarity threshold from each search were ranked based on the Tanimoto coefficient measure of similarity to a target molecule NSC12404, and the top 75 unique hits from each fingerprint search were selected for further analysis. The 225 compounds selected for further analysis were clustered based on Tanimoto coefficients calculated using Molecular ACCess System-key fingerprints (MACCS keys) and evaluated using the diversity subset function implemented in MOE. This selected a diverse subset of 27 compounds for biological evaluation by choosing the middle compounds in each cluster. These 27 compounds were tested in Ca^2+ mobilization assays at a concentration of 10 μM using stable cell lines individually expressing LPA2 and also in vector-transfected control cells. Hits activating LPA2 were further tested using cells expressing the other established and putative LPA GPCRs. Experimental testing of the selected compounds identified the three new selective LPA2 agonists: GRI977143, H2L5547924, and H2L5828102. […] They arbitrarily selected GRI977143 for further characterization in cell-based assays.
(§2) J Biol Chem (2009) 284(25): 17304-17319). […] The cells were loaded with Fura-2-acetoxymethyl esther (Fura-2/AM) in Krebs buffer containing 0.01% pluronic acid for 30 min and rinsed with Krebs buffer before measuring Ca^2+ mobilization. The ratio of peak emissions at 510 nm after 2 min of ligand addition was determined for excitation wavelengths of 340 nm/380 nm. All samples were run in quadruplicate. […] The half maximally effective concentration (EC50), and inhibitory constant (Ki) values were calculated by fitting a sigmoid function to dose-response data points using KaleidaGraph software (version 4.1, Synergy Software; […]).
Mouse embryonic fibroblast (MEF) cells were isolated from E13.5 LPA1&2 double knockout (DKO) embryos. MEFs were transduced with empty vector or LPA2-containing lentiviruses and selected with 1.5 μg/ml puromycin. Cells were maintained in Dulbecco's modified Eagle medium (DMEM) supplemented with 10% (V/V) fetal bovine serum (FBS), 2 mM L-glutamine, 100 U/mL penicillin, and 100 μg/mL streptomycin. Serum-free medium contained 0.1% (W/V) BSA in DMEM. The rat intestinal epithelial cell line 6 (IEC-6) was obtained from the American Type Culture Collection (Rockville, Md.) at passage 13; passages 16-21 were used in all experiments. IEC-6 cells were maintained in a humidified 37° C. incubator in an atmosphere of 90% air and 10% CO2. Growth medium consisted of DMEM supplemented with 5% heat inactivated FBS, 10 μg/mL insulin, and 50 μg/mL gentamycin. The composition of the serum-starvation medium was the same as that of the full growth medium except that it contained no FBS. The McArdle rat hepatoma cell line (RH7777) stably expressing LPA2 receptors was a gift from Dr. Fumikazu Okajima (Gunma University, Maebashi, Japan). RH7777 cells stably expressing LPA1 or LPA3 receptors were generated in-house and had been characterized earlier. Wild type and LPA receptor (LPAR) stably transfected RH7777 cells were grown in DMEM supplemented with 10% FBS and 2 mM L-glutamine in the presence of 250 μg/ml G418. Chinese hamster ovary (CHO) cells stably expressing either vector or LPA4 receptor were a kind gift from Dr. Takao Shimizu (Tokyo University; Tokyo, Japan). Cells were cultured in Ham's F12 medium containing 10% FBS, 2 mM L-glutamine, and 350 μg/ml G418. Rat neuroblastoma cells (B103) were transduced with the lentivirus harboring wild type of FLAG-LPA5 and selected with puromycin to establish the stable cell lines. The stable cells were maintained in DMEM supplemented with 10% FBS and 0.4 μg/ml puromycin. GPR87- and P2Y10-expressing CHO cells and vector-transfected control cells were a gift from Dr. Norihisha Fujita (Ritsumeikan University; Shiga, Japan). […]

LPA5 = biological target: T1, LPA5 (Homo sapiens, UniProt Q9H1C0); experiment: LPA receptor-mediated Ca2+ mobilization assay, LPA5; conditions: agonist
T1 construct: FLAG (N); expressed in transfected cells; host or cells: B103 rat neuroblastoma, lentiviral transduction, puromycin selection
T1 sequence (Q9H1C0 whole entry, species assumed): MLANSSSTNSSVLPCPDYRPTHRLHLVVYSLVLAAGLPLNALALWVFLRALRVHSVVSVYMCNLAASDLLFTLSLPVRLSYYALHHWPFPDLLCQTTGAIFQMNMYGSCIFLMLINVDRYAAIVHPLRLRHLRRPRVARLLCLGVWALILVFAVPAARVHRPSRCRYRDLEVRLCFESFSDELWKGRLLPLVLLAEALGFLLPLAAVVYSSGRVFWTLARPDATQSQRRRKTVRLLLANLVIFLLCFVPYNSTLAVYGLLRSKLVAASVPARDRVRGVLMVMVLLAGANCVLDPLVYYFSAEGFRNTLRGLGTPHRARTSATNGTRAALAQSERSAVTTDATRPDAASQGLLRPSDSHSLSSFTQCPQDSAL
Description: as §1, with “GPCRs.” for “GPCRs. Experimental testing of the selected compounds identified the three new selective LPA2 agonists: GRI977143, H2L5547924, and H2L5828102.”
as §2
Mouse embryonic fibroblast (MEF) cells were isolated from E13.5 LPA1&2 double knockout (DKO) embryos. MEFs were transduced with empty vector or LPA2-containing lentiviruses and selected with 1.5 μg/ml puromycin. Cells were maintained in Dulbecco's modified Eagle medium (DMEM) supplemented with 10% (V/V) fetal bovine serum (FBS), 2 mM L-glutamine, 100 U/mL penicillin, and 100 μg/mL streptomycin. Serum-free medium contained 0.1% (W/V) BSA in DMEM. The rat intestinal epithelial cell line 6 (IEC-6) was obtained from the American Type Culture Collection (Rockville, Md.) at passage 13; passages 16-21 were used in all experiments. IEC-6 cells were maintained in a humidified 37° C. incubator in an atmosphere of 90% air and 10% CO2. Growth medium consisted of DMEM supplemented with 5% heat inactivated FBS, 10 μg/mL insulin, and 50 μg/mL gentamycin. The composition of the serum-starvation medium was the same as that of the full growth medium except that it contained no FBS. […]

LPA4 = biological target: T2, LPA4 (Homo sapiens, UniProt Q99677); experiment: LPA receptor-mediated Ca2+ mobilization assay, LPA4; conditions: for EC50: agonist, Ca2+ mobilization
T2 construct: expressed in transfected cells
T2 sequence (Q99677 whole entry, species assumed): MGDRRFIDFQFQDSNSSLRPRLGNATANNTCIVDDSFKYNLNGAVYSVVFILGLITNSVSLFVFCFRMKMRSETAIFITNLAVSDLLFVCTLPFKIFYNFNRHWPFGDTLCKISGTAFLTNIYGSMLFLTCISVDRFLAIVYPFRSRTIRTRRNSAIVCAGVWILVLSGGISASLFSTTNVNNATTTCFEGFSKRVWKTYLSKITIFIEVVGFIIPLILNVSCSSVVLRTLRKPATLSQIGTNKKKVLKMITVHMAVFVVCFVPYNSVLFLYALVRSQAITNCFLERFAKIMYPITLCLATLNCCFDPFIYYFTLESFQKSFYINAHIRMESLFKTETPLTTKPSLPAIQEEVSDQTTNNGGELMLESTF
Description: as §1, with “GPCRs.” for “GPCRs. Experimental testing of the selected compounds identified the three new selective LPA2 agonists: GRI977143, H2L5547924, and H2L5828102.”
as §2
Mouse embryonic fibroblast (MEF) cells were isolated from E13.5 LPA1&2 double knockout (DKO) embryos. MEFs were transduced with empty vector or LPA2-containing lentiviruses and selected with 1.5 μg/ml puromycin. Cells were maintained in Dulbecco's modified Eagle medium (DMEM) supplemented with 10% (V/V) fetal bovine serum (FBS), 2 mM L-glutamine, 100 U/mL penicillin, and 100 μg/mL streptomycin. Serum-free medium contained 0.1% (W/V) BSA in DMEM. The rat intestinal epithelial cell line 6 (IEC-6) was obtained from the American Type Culture Collection (Rockville, Md.) at passage 13; passages 16-21 were used in all experiments. IEC-6 cells were maintained in a humidified 37° C. incubator in an atmosphere of 90% air and 10% CO2. Growth medium consisted of DMEM supplemented with 5% heat inactivated FBS, 10 μg/mL insulin, and 50 μg/mL gentamycin. The composition of the serum-starvation medium was the same as that of the full growth medium except that it contained no FBS. The McArdle rat hepatoma cell line (RH7777) stably expressing LPA2 receptors was a gift from Dr. Fumikazu Okajima (Gunma University, Maebashi, Japan). RH7777 cells stably expressing LPA1 or LPA3 receptors were generated in-house and had been characterized earlier. Wild type and LPA receptor (LPAR) stably transfected RH7777 cells were grown in DMEM supplemented with 10% FBS and 2 mM L-glutamine in the presence of 250 μg/ml G418. Chinese hamster ovary (CHO) cells stably expressing either vector or LPA4 receptor were a kind gift from Dr. Takao Shimizu (Tokyo University; Tokyo, Japan). Cells were cultured in Ham's F12 medium containing 10% FBS, 2 mM L-glutamine, and 350 μg/ml G418. Rat neuroblastoma cells (B103) were transduced with the lentivirus harboring wild type of FLAG-LPA5 and selected with puromycin to establish the stable cell lines. The stable cells were maintained in DMEM supplemented with 10% FBS and 0.4 μg/ml puromycin. GPR87- and P2Y10-expressing CHO cells and vector-transfected control cells were a gift from Dr. Norihisha Fujita (Ritsumeikan University; Shiga, Japan).

Compound | inhibition of GPR87 Ca2+ response (GPR87) | GPR87 Imax (%) (GPR87) | EC50 (LPA5) | inhibition of LPA4 Ca2+ response (LPA4; 10 μM, ~EC75 LPA 18:1) | LPA4 Imax (%) (LPA4; inhibition by 10 μM compound of ~EC75 LPA 18:1 Ca2+ response) | EC50 (LPA4) | EC50 (GPR87)
O=C(O)c1cc(Cl)c(Cl)cc1C(=O)Nc1ccc2c(c1)C(=O)c1ccccc1-2 [Compound H2L5547924] | partially inhibited | 31% | > 10 µM | partially inhibited | 51% | – | –
O=C(O)c1ccccc1C(=O)Nc1ccc2c(c1)C(=O)c1ccccc1C2=O [Compound H2L5828102] | partially inhibited | 21% | > 10 µM | – | – | > 10 µM | –
O=C(O)c1ccccc1SCCCN1C(=O)c2cccc3cccc(c23)C1=O [GRI977143] | – | – | – | – | – | > 10 µM | > 10 µM
CCCCCCCC/C=C\CCCCCCCC(=O)OC[C@@H](O)COP(=O)(O)O [LPA 18:1, Lysophosphatidic acid (18:1)] | – | – | – | – | – | – | 0.049 µM
O=C(O)c1ccccc1C(=O)Nc1ccc2c(c1)C(=O)c1ccccc1-2 [NSC12404] | – | – | > 10 µM | – | – | > 10 µM | > 10 µM
octadecenyl thiophosphate [OTP] | – | – | 0.003 µM | – | – | 2 µM | 3 µM
